Test system: ZEAMA Sileno
Assay: Safener seed treatment; pre-emergence herbicide application, visual scoring of % crop damage in greenhouse
Format: in vivo, maize
Conditions: for HER effect [%] / HER effect + SAF [%]: crop damage, pre-emergence; for HER effect [%]: herbicide alone (no safener); for HER effect + SAF [%]: seed treated with Benoxacor 0.25 g a.i./kg seed; for Reduction [Difference]: herbicide damage without safener minus with Benoxacor 0.25 g a.i./kg seed; for Reduction [%]: reduction of herbicide damage by Benoxacor 0.25 g a.i./kg seed, relative to damage without safener
Protocol: Seed Treatment; Pre-Emergence For the safener seed treatment, sufficient seeds of the respective crops (spring wheat, TRZAS; spring barley, HORVS; maize, ZEAMA) were weighed into screw top glass bottles approximately twice the volume of the seeds. The specified safeners, formulated as wettable powder (WP) were weighed out so that the specified rates (g a.i./kg seed) would be obtained, dissolved in water (1 ml water per 10 g of seeds), and added to the seeds to produce a slurry. The bottles were capped and then placed in an overhead shaker (set at medium speed for ca. 60 minutes) so that the seeds were evenly coated with the slurry. The bottles were uncapped and the seeds were either placed on paper and dried for an interval of 3-4 hours prior to sowing, or directly sown. Seeds were placed in sandy loam soil in pots of a diameter of 7-8 cm, and covered with soil. Pre-emergence application of the specified herbicides was done subsequently, on two sets of plants: a) seed treatment with safener, as described above b) no safener treatment The herbicides were formulated as WP and was sprayed onto the soil surface as an aqueous suspension at an equivalent water application rate of 300 l/ha. After application, the test plants were kept in the greenhouse under good growth conditions. At intervals up to 4 weeks after application (=28 days after treatment; DAT), % crop damage observed on the treated plants was scored visually in comparison to control plants that had not received any safener or herbicide treatment. Values in the table below are mean values of at least 2 replicates.

[1] = HER dose 40 g a.i./ha, assessment 26 DAT
[2] = HER dose 40 g a.i./ha, assessment 14 DAT
[3] = HER dose 80 g a.i./ha, assessment 14 DAT

| SMILES | HER effect [%] [1] [%] | HER effect + SAF [%] (HER dose 40 g a.i./ha, 26 DAT) | Reduction [Difference] (HER dose 40 g a.i./ha, 26 DAT) | Reduction [%] (HER dose 40 g a.i./ha, 26 DAT) | HER effect [%] [2] [%] | HER effect [%] [3] [%] | HER effect [%] (HER dose 80 g a.i./ha, assessment 26 DAT) | HER effect + SAF [%] (HER dose 40 g a.i./ha, 14 DAT) | HER effect + SAF [%] (HER dose 80 g a.i./ha, 14 DAT) | HER effect + SAF [%] (HER dose 80 g a.i./ha, 26 DAT) | Reduction [Difference] (HER dose 40 g a.i./ha, 14 DAT) | Reduction [Difference] (HER dose 80 g a.i./ha, 14 DAT) | Reduction [Difference] (HER dose 80 g a.i./ha, 26 DAT) | Reduction [%] (HER dose 40 g a.i./ha, 14 DAT) | Reduction [%] (HER dose 80 g a.i./ha, 14 DAT) | Reduction [%] (HER dose 80 g a.i./ha, 26 DAT) |
| --- | --- | --- | --- | --- | --- | --- | --- | --- | --- | --- | --- | --- | --- | --- | --- | --- |
| C=CC1(C(=O)NC2COC(C(=O)OC)C2)CC(c2cc(F)cc(F)c2)=NO1 (mixture of isomers) [Example 1.68] | 95 | 60 | 35 | 37 | – | – | – | – | – | – | – | – | – | – | – | – |
| C=CC1(C(=O)NC2C=CC(C(=O)OC)C2)CC(c2cc(F)cc(F)c2)=NO1 (stereo not shown) [Example 1.26] | 50 | 5 | 45 | 90 | 25 | 70 | 70 | 5 | 35 | 30 | 20 | 35 | 40 | 80 | 50 | 57 |
| CC1(C(=O)NC2C=CC(C(=O)O)C2)CC(c2cc(F)cc(F)c2)=NO1 (stereo not shown) [Example 1.36] | – | – | – | – | 60 | 83 | – | 40 | 60 | – | 20 | 23 | – | 33 | 28 | – |
